Reference: PubChem BioAssay AID1963969 (Molecular Pharmacology Branch, DTP, NCI, 2024)

Test system: 817829-284-R-J1-PDC multi-cell spheroid viability
Experiment: Anticancer human tumor 817829-284-R-J1-PDC patient-derived colon adenocarcinoma cell line growth inhibition [PI3K]
Settings: for IC50: curve of first compound; for viability, T/C: stronger effect = lower value; active means viability on the fitted dose curve at most 10% of control; inactive means the rest
Outline: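 Combination activity was assessed by viability in multicellular tumor spheroids carrying HUVEC and MSC components. Agents were tested with PI3K inhibitors from a Cmax-based top dose (or 10 microM) downward in half-log increments.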

[1] = second compound 0.0316 µM, first compound 0.0316 µM
[2] = second compound 0.0316 µM, first compound 0.1 µM
[3] = second compound 0.1 µM, first compound 0.0316 µM
[4] = second compound 0.1 µM, first compound 0.1 µM
[5] = second compound 0.316 µM, first compound 0.0316 µM
[6] = second compound 0.316 µM, first compound 0.1 µM
[7] = second compound 1 µM, first compound 0.0316 µM
[8] = second compound 1 µM, first compound 0.1 µM
[9] = second compound 3.16 µM, first compound 0.0316 µM
[10] = second compound 3.16 µM, first compound 0.1 µM
[11] = second compound 10 µM, first compound 0.0316 µM
[12] = second compound 10 µM, first compound 0.1 µM
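Further: spheroids exposed to agents for seven days before readout.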
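Wherever viability, T/C is given: percent of vehicle DMSO control viability which is 100%.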

CC(=O)c1c(C)c2cnc(Nc3ccc(N4CCNCC4)cn3)nc2n(C2CCCC2)c1=O + Cc1nc(NC(=O)N2CCCC2C(N)=O)sc1-c1ccnc(C(C)(C)C(F)(F)F)c1
inactive: viability, T/C (second compound 0.0316 µM, first compound 0.000316 µM) 88.4% | viability, T/C (second compound 0.0316 µM, first compound 0.001 µM) 96.1% | viability, T/C (second compound 0.0316 µM, first compound 0.00316 µM) 70.8% | viability, T/C (second compound 0.0316 µM, first compound 0.01 µM) 60.1% | viability, T/C [1] 52.8% | viability, T/C [2] 38.2% | viability, T/C (second compound 0.1 µM, first compound 0.000316 µM) 71.2% | viability, T/C (second compound 0.1 µM, first compound 0.001 µM) 79.7% | viability, T/C (second compound 0.1 µM, first compound 0.00316 µM) 52.4% | viability, T/C (second compound 0.1 µM, first compound 0.01 µM) 45% | viability, T/C [3] 38.1% | viability, T/C [4] 47.6% | viability, T/C (second compound 0.316 µM, first compound 0.000316 µM) 75.1% | viability, T/C (second compound 0.316 µM, first compound 0.001 µM) 53.8% | viability, T/C (second compound 0.316 µM, first compound 0.00316 µM) 65.9% | viability, T/C (second compound 0.316 µM, first compound 0.01 µM) 66.9% | viability, T/C [5] 34.7% | viability, T/C [6] 44.7% | viability, T/C (second compound 1 µM, first compound 0.000316 µM) 43.6% | viability, T/C (second compound 1 µM, first compound 0.001 µM) 55.4% | viability, T/C (second compound 1 µM, first compound 0.00316 µM) 51.6% | viability, T/C (second compound 1 µM, first compound 0.01 µM) 42.1% | viability, T/C [7] 37.3% | viability, T/C [8] 37% | viability, T/C (second compound 3.16 µM, first compound 0.000316 µM) 62.5% | viability, T/C (second compound 3.16 µM, first compound 0.001 µM) 58.9% | viability, T/C (second compound 3.16 µM, first compound 0.00316 µM) 38.3% | viability, T/C (second compound 3.16 µM, first compound 0.01 µM) 49.3% | viability, T/C [9] 32% | viability, T/C [10] 31.5% | viability, T/C (second compound 10 µM, first compound 0.000316 µM) 51.8% | viability, T/C (second compound 10 µM, first compound 0.001 µM) 43.8% | viability, T/C (second compound 10 µM, first compound 0.00316 µM) 40.7% | viability, T/C (second compound 10 µM, first compound 0.01 µM) 47.5% | viability, T/C [11] 43.8% | viability, T/C [12] 21.3%
2.05 nM: IC50 (second compound 3.16 µM)
4.34 nM: IC50 (second compound 0.1 µM)
23.6 nM: IC50 (second compound 0.316 µM)
3.26 nM: IC50 (second compound 1 µM)
27.2 nM: IC50 (second compound 0.0316 µM)
< 0.316 nM: IC50 (second compound 10 µM)

CNC(=O)c1ccc(N2C(=S)N(c3ccc(C#N)c(C(F)(F)F)c3)C(=O)C2(C)C)cc1F + Cc1nc(NC(=O)N2CCCC2C(N)=O)sc1-c1ccnc(C(C)(C)C(F)(F)F)c1
1150 nM: IC50 (second compound 10 µM)
> 10000 nM: IC50 (second compound 0.0316 µM) | IC50 (second compound 0.1 µM) | IC50 (second compound 0.316 µM)
6960 nM: IC50 (second compound 1 µM)
2350 nM: IC50 (second compound 3.16 µM)
inactive: viability, T/C [1] 95.7% | viability, T/C [2] 102% | viability, T/C (second compound 0.0316 µM, first compound 0.316 µM) 96.2% | viability, T/C (second compound 0.0316 µM, first compound 1 µM) 90.2% | viability, T/C (second compound 0.0316 µM, first compound 3.16 µM) 67.6% | viability, T/C (second compound 0.0316 µM, first compound 10 µM) 84.6% | viability, T/C [3] 69% | viability, T/C [4] 77.8% | viability, T/C (second compound 0.1 µM, first compound 0.316 µM) 87.4% | viability, T/C (second compound 0.1 µM, first compound 1 µM) 69.3% | viability, T/C (second compound 0.1 µM, first compound 3.16 µM) 56.4% | viability, T/C (second compound 0.1 µM, first compound 10 µM) 68.2% | viability, T/C [5] 106% | viability, T/C [6] 85.5% | viability, T/C (second compound 0.316 µM, first compound 0.316 µM) 68.8% | viability, T/C (second compound 0.316 µM, first compound 1 µM) 70.6% | viability, T/C (second compound 0.316 µM, first compound 3.16 µM) 77.2% | viability, T/C (second compound 0.316 µM, first compound 10 µM) 63.3% | viability, T/C [7] 60% | viability, T/C [8] 73.6% | viability, T/C (second compound 1 µM, first compound 0.316 µM) 68.7% | viability, T/C (second compound 1 µM, first compound 1 µM) 107% | viability, T/C (second compound 1 µM, first compound 3.16 µM) 63.3% | viability, T/C (second compound 1 µM, first compound 10 µM) 43.8% | viability, T/C [9] 67.3% | viability, T/C [10] 77.8% | viability, T/C (second compound 3.16 µM, first compound 0.316 µM) 81.8% | viability, T/C (second compound 3.16 µM, first compound 1 µM) 58.3% | viability, T/C (second compound 3.16 µM, first compound 3.16 µM) 48.5% | viability, T/C (second compound 3.16 µM, first compound 10 µM) 34.5% | viability, T/C [11] 60% | viability, T/C [12] 70% | viability, T/C (second compound 10 µM, first compound 0.316 µM) 54.8% | viability, T/C (second compound 10 µM, first compound 1 µM) 52.6% | viability, T/C (second compound 10 µM, first compound 3.16 µM) 38.3% | viability, T/C (second compound 10 µM, first compound 10 µM) 22.9%

Cn1cnc2c(F)c(Nc3ccc(Br)cc3Cl)c(C(=O)NOCCO)cc21 + Cc1nc(NC(=O)N2CCCC2C(N)=O)sc1-c1ccnc(C(C)(C)C(F)(F)F)c1
160 nM: IC50 (second compound 0.316 µM)
289 nM: IC50 (second compound 0.0316 µM)
inactive: viability, T/C (second compound 0.0316 µM, first compound 0.00949 µM) 96.6% | viability, T/C (second compound 0.0316 µM, first compound 0.03 µM) 63% | viability, T/C (second compound 0.0316 µM, first compound 0.0949 µM) 67.3% | viability, T/C (second compound 0.0316 µM, first compound 0.3 µM) 44.5% | viability, T/C (second compound 0.0316 µM, first compound 0.949 µM) 50.2% | viability, T/C (second compound 0.0316 µM, first compound 3 µM) 22.4% | viability, T/C (second compound 0.1 µM, first compound 0.00949 µM) 80.8% | viability, T/C (second compound 0.1 µM, first compound 0.03 µM) 62.1% | viability, T/C (second compound 0.1 µM, first compound 0.0949 µM) 59.7% | viability, T/C (second compound 0.1 µM, first compound 0.3 µM) 46.8% | viability, T/C (second compound 0.1 µM, first compound 0.949 µM) 49.6% | viability, T/C (second compound 0.1 µM, first compound 3 µM) 31.2% | viability, T/C (second compound 0.316 µM, first compound 0.00949 µM) 82.2% | viability, T/C (second compound 0.316 µM, first compound 0.03 µM) 60.4% | viability, T/C (second compound 0.316 µM, first compound 0.0949 µM) 62.8% | viability, T/C (second compound 0.316 µM, first compound 0.3 µM) 39.6% | viability, T/C (second compound 0.316 µM, first compound 0.949 µM) 35.3% | viability, T/C (second compound 0.316 µM, first compound 3 µM) 22.8% | viability, T/C (second compound 1 µM, first compound 0.00949 µM) 67.7% | viability, T/C (second compound 1 µM, first compound 0.03 µM) 44.9% | viability, T/C (second compound 1 µM, first compound 0.0949 µM) 48.2% | viability, T/C (second compound 1 µM, first compound 0.3 µM) 62% | viability, T/C (second compound 1 µM, first compound 0.949 µM) 27.3% | viability, T/C (second compound 1 µM, first compound 3 µM) 29.4% | viability, T/C (second compound 3.16 µM, first compound 0.00949 µM) 118% | viability, T/C (second compound 3.16 µM, first compound 0.03 µM) 88.8% | viability, T/C (second compound 3.16 µM, first compound 0.0949 µM) 74.1% | viability, T/C (second compound 3.16 µM, first compound 0.3 µM) 70.2% | viability, T/C (second compound 3.16 µM, first compound 0.949 µM) 38.8% | viability, T/C (second compound 3.16 µM, first compound 3 µM) 24.4% | viability, T/C (second compound 10 µM, first compound 0.00949 µM) 74.8% | viability, T/C (second compound 10 µM, first compound 0.03 µM) 70% | viability, T/C (second compound 10 µM, first compound 0.0949 µM) 62.4% | viability, T/C (second compound 10 µM, first compound 0.3 µM) 50.4% | viability, T/C (second compound 10 µM, first compound 0.949 µM) 31.1% | viability, T/C (second compound 10 µM, first compound 3 µM) 11.5%
574 nM: IC50 (second compound 3.16 µM)
293 nM: IC50 (second compound 10 µM)
135 nM: IC50 (second compound 1 µM)
319 nM: IC50 (second compound 0.1 µM)
